The source of these data is ChEMBL document CHEMBL1155961, “Novel 4-aryl-pyrido[1,2-c]pyrimidines with dual SSRI and 5-HT1A activity: part 2” (Eur J Med Chem, 2009).

Activity calls are given as the source filed them. The rule behind the calls is not given here.

In assay [1] the test system is Mus musculus. As to the kind of experiment: Antidepressant activity in Swiss albino mouse assessed as reduction of immobility time at 2 mg/kg, sc administered 30 mins before test measured 6 mins test session after 2 mins habituation period by forced swimming test. The assay is classed as functional. Conditions: route subcutaneous. Further details: scale not given: the % may be the effect or the level left.

For assay [2], the system named is Mus musculus. The assay can be described thus: Antidepressant activity in Swiss albino mouse assessed as reduction of immobility time at 1 mg/kg, sc administered 30 mins before test measured 6 mins test session after 2 mins habituation period by forced swimming test. Type of assay: functional. Further details: scale not given: the % may be the effect or the level left. The following applies: route subcutaneous.

Assay [3] deals with Mus musculus. The assay can be described thus: Effect on spontaneous locomotor activity in Swiss albino mouse assessed as number of light-beam crossings in actiometers pretreated for 30 mins at 20 mg/kg, ip measured during 30 mins post drug dose. Type of assay: functional. The following applies: route intraperitoneal.
Assay [4] has as its system Mus musculus. The assay can be described thus: Effect on hypothermia in Swiss albino mouse assessed as change in rectal body temperature at 5 mg/kg, ip after 60 mins by inducible hypothermia test. The assay is classed as functional, organism-based. Further details: dose 5 mg/kg.
The subject of assay [5] is Mus musculus. The assay can be described thus: Effect on hypothermia in Swiss albino mouse assessed as change in rectal body temperature at 20 mg/kg, ip after 30 mins by inducible hypothermia test. Further details: dose 20 mg/kg. The assay is classed as functional, organism-based.
Assay [6] has as its system Mus musculus. As to the kind of experiment: Antidepressant activity in Swiss albino mouse assessed as reduction of immobility time at 10 mg/kg, ip administered 30 mins before test measured 6 mins test session after 2 mins habituation period by forced swimming test. The assay is classed as functional.
The test system of assay [7] is Mus musculus. The assay can be described thus: Antidepressant activity in Swiss albino mouse assessed as reduction of immobility time at 20 mg/kg, ip administered 30 mins before test measured 6 mins test session after 2 mins habituation period by forced swimming test. Further details: scale not given: the % may be the effect or the level left. Type of assay: functional. The following applies: route intraperitoneal.

The subject of assay [8] is Mus musculus. As to the kind of experiment: Effect on hypothermia in Swiss albino mouse assessed as change in rectal body temperature at 10 mg/kg, ip after 90 mins by inducible hypothermia test. The assay is classed as functional, organism-based. Further details: dose 10 mg/kg.
Assay [9] relates to Mus musculus. As to the kind of experiment: Effect on hypothermia in Swiss albino mouse assessed as change in rectal body temperature at 20 mg/kg, ip dosed 15 mins after 0.1 mg/kg, sc WAY 100635 challenge measured after 60 mins by inducible hypothermia test. The assay is classed as functional, organism-based.
Assay [10] has as its system Mus musculus. The assay can be described thus: Effect on hypothermia in Swiss albino mouse assessed as change in rectal body temperature at 5 mg/kg, ip after 120 mins by inducible hypothermia test. Further details: dose 5 mg/kg. The assay is classed as functional, organism-based.
The subject of assay [11] is Mus musculus. As to the kind of experiment: Effect on spontaneous locomotor activity in Swiss albino mouse assessed as number of light-beam crossings in actiometers pretreated for 30 mins at 20 mg/kg, ip measured during 6 mins post drug dose. The assay is classed as functional. The following applies: route intraperitoneal.
Assay [12] has as its system Mus musculus. The assay can be described thus: Effect on hypothermia in Swiss albino mouse assessed as change in rectal body temperature at 10 mg/kg, ip after 30 mins by inducible hypothermia test. Further details: dose 10 mg/kg. The assay is classed as functional, organism-based.
In assay [13] the test system is Mus musculus. As to the kind of experiment: Effect on hypothermia in Swiss albino mouse assessed as change in rectal body temperature at 20 mg/kg, ip after 60 mins by inducible hypothermia test. The assay is classed as functional, organism-based. Further details: dose 20 mg/kg.
Assay [14] concerns Mus musculus. As to the kind of experiment: Effect on hypothermia in Swiss albino mouse assessed as change in rectal body temperature at 5 mg/kg, ip after 30 mins by inducible hypothermia test. Type of assay: functional, organism-based. Further details: dose 5 mg/kg.
The target of assay [15] is T1, 5-hydroxytryptamine receptor 1A (Rattus norvegicus, UniProt P19327).
T1 sequence (P19327 whole entry): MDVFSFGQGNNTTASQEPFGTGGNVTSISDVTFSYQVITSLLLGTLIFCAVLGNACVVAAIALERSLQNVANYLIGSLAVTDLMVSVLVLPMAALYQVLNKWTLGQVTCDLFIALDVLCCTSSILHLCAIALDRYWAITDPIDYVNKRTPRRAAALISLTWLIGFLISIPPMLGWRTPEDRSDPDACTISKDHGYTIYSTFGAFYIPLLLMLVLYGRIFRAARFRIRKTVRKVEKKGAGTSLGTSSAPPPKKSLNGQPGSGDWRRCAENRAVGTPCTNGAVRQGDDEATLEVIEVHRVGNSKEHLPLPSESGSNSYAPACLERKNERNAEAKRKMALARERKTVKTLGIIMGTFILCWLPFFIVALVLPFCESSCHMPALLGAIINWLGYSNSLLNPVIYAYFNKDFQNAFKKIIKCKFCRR
The assay can be described thus: Displacement of [3H]8-OH-DPAT from 5-HT1A receptor in rat hippocampus. Type of assay: tissue-based.

The target in assay [16] is Sodium-dependent serotonin transporter (Rattus norvegicus, UniProt P31652). The assay can be described thus: Displacement of [3H]citalopram from SERT in rat cerebral cortex by liquid scintillation counting. Type of assay: tissue-based.
Chain of Sodium-dependent serotonin transporter (P31652 whole entry): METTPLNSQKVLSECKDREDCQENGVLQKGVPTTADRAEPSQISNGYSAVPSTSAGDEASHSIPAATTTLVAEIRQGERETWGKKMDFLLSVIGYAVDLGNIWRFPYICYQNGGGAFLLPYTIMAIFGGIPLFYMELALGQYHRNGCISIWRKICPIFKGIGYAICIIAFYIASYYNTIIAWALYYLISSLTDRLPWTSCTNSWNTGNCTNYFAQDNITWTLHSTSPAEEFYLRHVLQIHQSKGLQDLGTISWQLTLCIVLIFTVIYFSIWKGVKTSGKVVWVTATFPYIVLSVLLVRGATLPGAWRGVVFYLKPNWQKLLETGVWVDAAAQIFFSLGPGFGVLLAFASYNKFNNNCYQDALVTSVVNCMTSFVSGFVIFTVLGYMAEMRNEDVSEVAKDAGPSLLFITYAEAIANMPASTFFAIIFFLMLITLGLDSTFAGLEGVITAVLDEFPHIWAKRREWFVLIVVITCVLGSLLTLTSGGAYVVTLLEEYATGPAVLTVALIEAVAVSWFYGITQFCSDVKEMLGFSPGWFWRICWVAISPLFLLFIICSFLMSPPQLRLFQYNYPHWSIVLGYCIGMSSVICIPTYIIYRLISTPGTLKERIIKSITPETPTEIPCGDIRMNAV
The test system of assay [17] is Mus musculus. As to the kind of experiment: Effect on hypothermia in Swiss albino mouse assessed as change in rectal body temperature at 20 mg/kg, ip after 120 mins by inducible hypothermia test. Further details: dose 20 mg/kg. The assay is classed as functional, organism-based.
In assay [18] the test system is Mus musculus. The assay can be described thus: Effect on hypothermia in Swiss albino mouse assessed as change in rectal body temperature at 10 mg/kg, ip after 120 mins by inducible hypothermia test. Type of assay: functional, organism-based. Further details: dose 10 mg/kg.
In assay [19] the test system is Mus musculus. As to the kind of experiment: Effect on hypothermia in Swiss albino mouse assessed as change in rectal body temperature at 20 mg/kg, ip dosed 15 mins after 0.1 mg/kg, sc WAY 100635 challenge measured after 30 mins by inducible hypothermia test. Type of assay: functional, organism-based.
For assay [20], the system named is Mus musculus. As to the kind of experiment: Effect on hypothermia in Swiss albino mouse assessed as change in rectal body temperature at 5 mg/kg, ip after 90 mins by inducible hypothermia test. Further details: dose 5 mg/kg. Type of assay: functional, organism-based.
Assay [21] has as its system Mus musculus. The assay can be described thus: Effect on hypothermia in Swiss albino mouse assessed as change in rectal body temperature at 20 mg/kg, ip after 90 mins by inducible hypothermia test. The assay is classed as functional, organism-based. Further details: dose 20 mg/kg.
The subject of assay [22] is Mus musculus. As to the kind of experiment: Effect on hypothermia in Swiss albino mouse assessed as change in rectal body temperature at 10 mg/kg, ip after 60 mins by inducible hypothermia test. Type of assay: functional, organism-based. Further details: dose 10 mg/kg.

`CCCN(CCC)C1CCc2cccc(O)c2C1` (configuration not stated) [8-OH-DPAT]: the Activity in assay [1] came to 57%; in assay [2], 45%.

The term Ki denotes a dissociation constant, usually derived from enzyme kinetics or from competition with a known ligand. For the molecule `COc1ccc2[nH]cc(C3CCN(CCCCn4c(=O)c(-c5ccccc5F)c5n(c4=O)CCCC5)CC3)c2c1`, the Activity in assay [3] worked out at 520; in assay [7], 26%; in assay [11], 272. In addition, the deltaT was -0.6 °C in assay [4]; -1.2 °C in assay [5]; -0.6 °C in assay [8]; -0.4 °C in [9]; -0.3 °C in assay [10]; -0.7 °C in [12]. The deltaT is -1 °C in [13]; -0.7 °C in assay [14]; -0.7 °C in assay [17]; -0.4 °C in assay [18]; -0.5 °C in assay [19]; -0.4 °C in assay [20]. The deltaT in assay [21] and in assay [22] was -0.8 °C each time. The result in assay [6] was inactive. Also, the Ki is 45.6 nM in [15] and 184 nM in assay [16].
